What was measured:
[1] = molecular target: T1, PI3Kγ (p120γ) (Homo sapiens, UniProt P48736); assay: HTRF assay, potency against active PI3Kγ; assay type: biochemical; conditions: [ATP]=50 μM, [di-C8-PIP2]=10 μM, 30 min pre-incubation, read-out: PI3Kγ Inhibition
T1 construct: purchased BPS Bioscience (San Diego, Calif.) or Millipore (Billerica, Mass.)
Description: Homogeneous Time Resolved Fluorescence (HTRF) Assay Protocol for Potency Assessment Against the Active Forms of PI3Kα, PI3Kβ, and PI3Kγ
The protocol below describes an end-point, competition-binding HTRF assay used to measure inherent potency of test compounds against active PI3Kα (p110α/p85α), PI3Kβ (p110β/p85α), and PI3Kγ (p120γ) enzymes. The mechanics of the assay platform are best described by the vendor (Millipore, Billerica, Mass.) on their website at the following URL: www.millipore.com/coa/tech1/74jt4z.
Briefly, Stop solution (Stop A, #33-007 and Stop B, #33-009; 3:1 ratio) and Detection Mix (from DMC, #33-015 with DMA, #33-011 and DMB, #33-013; 18:1:1 ratio) were prepared as recommended by the manufacturer about 2 hrs prior to use. Additionally, 1× reaction buffer (from 4× buffer stock# 33-003), 1.4× stocks of PI3Kα, PI3Kβ, and PI3Kγ enzymes from BPS Bioscience (San Diego, Calif.) or Millipore (Billerica, Mass.) with di-C8-PIP2 lipid substrate (#33-005), and a 4×ATP solution (#A7699 Sigma/Aldrich; St. Louis, Mo.) were prepared in 1× reaction buffer. 15 μL of PI3K enzymes and lipid substrate mix were pre-incubated in a Corning (#3573) 384-well, black, non-treated microtiter plate (Corning, N.Y.) for 30 min at 25° C. with a 0.5 μL volume of 50% DMSO and serially diluted compounds prepared in 50% DMSO. Lipid kinase reactions were started with the addition of 5 μL of ATP solution, mixed for 15 sec on a rotary plate shaker and incubated for 30-60 minutes at 25° C. Next, reactions were stopped with a 5 μL addition of Stop solution immediately followed by a 5 μL volume of Detection Mix. Stopped reactions were equilibrated for 1 and 18 hrs at room temperature and read in a Synergy^4 plate reader from BioTek (Winooski, Vt.) at λex330-80/λem620-35 and λem665-7.5. At the conclusion of each assay, the HTRF ratio from fluorescence emission values for each well was calculated and % Inhibition determined from averaged controls wells (+/−PI3K enzyme). % Inhibition values for each compound were then plotted against inhibitor concentration to estimate IC50 from log [Inhibitor] vs Response, Variable Slope model in GraphPad Prism from GraphPad Software (San Diego, Calif.).
[Reagent] used in optimized protocol: • [p110α/p85α]=0.5-1.5 nM, [ATP]=50 μM, [di-C8—PIP2]=10 μM • [p110β/p85α]=0.75 nM, [ATP]=50 μM, [di-C8—PIP2]=10 μM • [p120γ]=2-2.5 nM, [ATP]=50 μM, [di-C8—PIP2]=10 μM • (ATP KMapp for both enzymes was estimated to be 40-70 μM)

[2] = molecular target: T2, PI3Kα (p110α/p85α) (Homo sapiens, UniProt P42336); assay: HTRF assay, potency against active PI3Kα; assay type: biochemical; conditions: HTRF; [ATP]=50 μM, [di-C8-PIP2]=10 μM; 30 min pre-incubation; read-out: PI3Kα Inhibition
T2 construct: purchased BPS Bioscience (San Diego, Calif.) or Millipore (Billerica, Mass.)
How it was run: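 Active p110/p85α lipid kinase reactions were started with ATP and run 30-60 minutes at 25 °C, then stopped and developed with HTRF detection mix. HTRF ratio converted to % inhibition against ±enzyme controls; IC50 from log[inhibitor] vs response, variable slope.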

[3] = test system: PI3K; assay: PI3K HCT116 cellular assay (Western blot); assay type: cell-based; conditions: Homo sapiens, HCT-116, HCT116 colon cancer cells, 1 hour incubation, read-out: PI3K Inhibition
Experimental: PI3K HCT116 Cellular Assay
Selected compounds were assayed in HCT116 colon cancer cells. […] Cells were then washed with PBS, lysed and the protein lysates were then recovered and analyzed by Western blot.

T2 sequence (P42336 whole entry): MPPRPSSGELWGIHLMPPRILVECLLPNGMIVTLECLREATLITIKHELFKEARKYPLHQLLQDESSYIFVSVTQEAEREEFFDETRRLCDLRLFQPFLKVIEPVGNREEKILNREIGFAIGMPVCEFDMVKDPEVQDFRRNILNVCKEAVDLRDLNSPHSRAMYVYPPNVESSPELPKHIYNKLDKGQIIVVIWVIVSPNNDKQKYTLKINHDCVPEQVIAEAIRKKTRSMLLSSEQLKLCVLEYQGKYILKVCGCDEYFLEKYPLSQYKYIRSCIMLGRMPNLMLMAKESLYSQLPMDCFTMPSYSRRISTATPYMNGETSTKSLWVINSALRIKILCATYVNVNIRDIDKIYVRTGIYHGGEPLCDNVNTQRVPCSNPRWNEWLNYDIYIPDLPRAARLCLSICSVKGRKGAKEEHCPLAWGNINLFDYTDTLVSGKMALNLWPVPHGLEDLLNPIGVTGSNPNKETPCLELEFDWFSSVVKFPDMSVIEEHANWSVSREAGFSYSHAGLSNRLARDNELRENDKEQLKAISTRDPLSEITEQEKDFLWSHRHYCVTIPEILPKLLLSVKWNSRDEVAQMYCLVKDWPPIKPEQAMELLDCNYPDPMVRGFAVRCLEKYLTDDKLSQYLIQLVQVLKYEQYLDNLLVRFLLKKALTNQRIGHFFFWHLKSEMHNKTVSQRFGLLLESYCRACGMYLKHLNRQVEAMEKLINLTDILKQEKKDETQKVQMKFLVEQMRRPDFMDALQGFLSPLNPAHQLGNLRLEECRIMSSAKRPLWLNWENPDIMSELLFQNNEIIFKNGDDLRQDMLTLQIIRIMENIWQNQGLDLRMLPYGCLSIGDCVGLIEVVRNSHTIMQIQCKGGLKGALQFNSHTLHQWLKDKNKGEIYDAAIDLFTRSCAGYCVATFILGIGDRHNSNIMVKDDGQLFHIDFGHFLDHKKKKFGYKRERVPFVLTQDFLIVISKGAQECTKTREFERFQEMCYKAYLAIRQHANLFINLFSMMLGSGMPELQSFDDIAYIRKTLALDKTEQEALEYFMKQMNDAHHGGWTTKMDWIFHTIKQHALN
T2 sequence (P27986 whole entry partner): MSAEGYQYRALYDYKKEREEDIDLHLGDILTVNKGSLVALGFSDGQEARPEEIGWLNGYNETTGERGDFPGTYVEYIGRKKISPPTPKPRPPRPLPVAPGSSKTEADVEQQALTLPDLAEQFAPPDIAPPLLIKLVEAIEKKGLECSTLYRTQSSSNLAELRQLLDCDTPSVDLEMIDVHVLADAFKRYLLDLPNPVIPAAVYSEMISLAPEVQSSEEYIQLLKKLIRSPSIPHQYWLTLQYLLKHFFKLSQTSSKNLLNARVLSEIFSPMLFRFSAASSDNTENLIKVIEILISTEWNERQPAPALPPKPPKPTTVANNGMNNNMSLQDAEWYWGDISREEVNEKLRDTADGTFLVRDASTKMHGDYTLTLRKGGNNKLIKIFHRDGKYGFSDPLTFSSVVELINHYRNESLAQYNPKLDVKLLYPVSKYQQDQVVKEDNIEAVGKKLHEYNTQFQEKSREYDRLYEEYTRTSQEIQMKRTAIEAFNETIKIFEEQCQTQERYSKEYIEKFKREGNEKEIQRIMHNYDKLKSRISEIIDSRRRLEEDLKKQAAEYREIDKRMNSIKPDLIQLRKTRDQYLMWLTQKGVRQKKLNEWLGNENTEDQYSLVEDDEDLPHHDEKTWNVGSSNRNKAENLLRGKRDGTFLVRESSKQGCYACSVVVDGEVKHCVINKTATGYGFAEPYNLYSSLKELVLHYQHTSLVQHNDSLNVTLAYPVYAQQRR
T1 sequence (P48736 whole entry): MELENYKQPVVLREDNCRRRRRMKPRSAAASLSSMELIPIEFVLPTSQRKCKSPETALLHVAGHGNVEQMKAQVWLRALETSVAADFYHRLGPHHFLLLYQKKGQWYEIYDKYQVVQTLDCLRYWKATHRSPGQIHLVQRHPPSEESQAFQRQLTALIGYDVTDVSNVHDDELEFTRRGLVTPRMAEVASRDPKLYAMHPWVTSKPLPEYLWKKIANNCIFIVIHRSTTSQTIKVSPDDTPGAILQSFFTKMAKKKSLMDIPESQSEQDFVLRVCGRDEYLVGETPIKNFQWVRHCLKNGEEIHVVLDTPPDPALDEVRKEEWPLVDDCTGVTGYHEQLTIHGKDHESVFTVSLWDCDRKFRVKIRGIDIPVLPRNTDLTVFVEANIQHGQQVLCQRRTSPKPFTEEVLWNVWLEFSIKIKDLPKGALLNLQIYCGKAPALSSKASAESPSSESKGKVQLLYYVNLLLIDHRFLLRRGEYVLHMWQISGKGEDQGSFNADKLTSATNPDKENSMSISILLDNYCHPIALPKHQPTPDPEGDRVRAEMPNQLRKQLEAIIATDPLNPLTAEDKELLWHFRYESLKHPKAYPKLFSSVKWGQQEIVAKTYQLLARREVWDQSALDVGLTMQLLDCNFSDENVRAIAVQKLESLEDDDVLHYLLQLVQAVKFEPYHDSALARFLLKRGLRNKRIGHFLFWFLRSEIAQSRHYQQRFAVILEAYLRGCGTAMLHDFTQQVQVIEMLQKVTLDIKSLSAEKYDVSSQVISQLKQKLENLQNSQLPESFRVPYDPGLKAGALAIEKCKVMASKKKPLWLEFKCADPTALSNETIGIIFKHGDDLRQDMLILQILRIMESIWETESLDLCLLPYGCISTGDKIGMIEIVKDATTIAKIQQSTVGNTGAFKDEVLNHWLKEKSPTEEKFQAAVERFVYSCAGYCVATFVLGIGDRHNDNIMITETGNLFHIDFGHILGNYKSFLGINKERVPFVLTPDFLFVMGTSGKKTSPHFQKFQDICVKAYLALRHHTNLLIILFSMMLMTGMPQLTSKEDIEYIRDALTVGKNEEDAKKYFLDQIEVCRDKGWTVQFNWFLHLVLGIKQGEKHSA

SMILES | IC50 [1] [µM] | IC50 [2] [µM] | EC50 [3] [µM]
C=CC(=O)NC1CCC(C(=O)N(C)Cc2cc3nc(-c4cccc(O)c4)nc(N4CCOCC4)c3s2)CC1 (racemic) [II-a-35, (±)-4-acrylamido-N-((2-(3-hydroxyphenyl)-4-morpholinothieno[3,2-d]pyrimidin-6-yl)methyl)-N-methylcyclohexanecarboxamide] | 0.1 to 1 | 0.1 to 1 | 0.1 to 0.5
O=C1NC(=O)/C(=C/c2ccc3nccc(-c4ccncc4)c3c2)S1 [GSK-615, reference compound] |  |  | < 0.02
C=CC(=O)NCC(=O)N1CCN(Cc2cc3nc(-c4cccc5[nH]ncc45)nc(N4CCOCC4)c3s2)CC1 [II-a-6, N-(2-(4-((2-(1H-indazol-4-yl)-4-morpholinothieno[3,2-d]pyrimidin-6-yl)methyl)piperazin-1-yl)-2-oxoethyl)acrylamide] | > 1 | 0.1 to 1 | 2 to 5
C=CC(=O)NCCS(=O)(=O)N1CCN(Cc2cc3nc(-c4cccc(O)c4)nc(N4CCOCC4)c3s2)CC1 [II-a-25, N-(2-(4-((2-(3-hydroxyphenyl)-4-morpholinothieno[3,2-d]pyrimidin-6-yl)methyl)piperazin-1-ylsulfonyl)ethyl)acrylamide] | 0.1 to 1 | 0.01 to 0.1 | 0.02 to 0.1
C=CC(=O)NCC(=O)NCC(=O)N1CCN(Cc2cc3nc(-c4cccc5[nH]ncc45)nc(N4CCOCC4)c3s2)CC1 [II-a-32, N-(2-(2-(4-((2-(1H-indazol-4-yl)-4-morpholinothieno[3,2-d]pyrimidin-6-yl)methyl)piperazin-1-yl)-2-oxoethylamino)-2-oxoethyl)acrylamide] | > 1 | 0.1 to 1 | 
C=CC(=O)N1CCN(C(=O)C2CCN(Cc3cc4nc(-c5cccc(O)c5)nc(N5CCOCC5)c4s3)CC2)CC1 [II-a-34, (1-((2-(3-hydroxyphenyl)-4-morpholinothieno[3,2-d]pyrimidin-6-yl)methyl)piperidin-4-yl)(4-acryloyl-piperazin-1-yl)methanone] | > 1 | 0.1 to 1 | 
C=CC(=O)NCC(=O)N1CCN(Cc2cc3nc(-c4cccc(O)c4)nc(N4CCOCC4)c3s2)CC1 [II-a-38, N-(2-(4-((2-(3-hydroxyphenyl)-4-morpholinothieno[3,2-d]pyrimidin-6-yl)methyl)piperazin-1-yl)-2-oxoethyl)acrylamide] | > 1 | 0.01 to 0.1 | 
C=CC(=O)N(C)Cc1cc2nc(-c3cccc(O)c3)nc(N3CCOCC3)c2s1 [II-a-39, N-((2-(3-hydroxyphenyl)-4-morpholinothieno[3,2-d]pyrimidin-6-yl)methyl)-N-methylacrylamide] | > 1 | 0.01 to 0.1 | 
C/C=C/C(=O)CCC(=O)N(C)Cc1cc2nc(-c3cccc(O)c3)nc(N3CCOCC3)c2s1 [II-a-40, (E)-N-((2-(3-hydroxyphenyl)-4-morpholinothieno[3,2-d]pyrimidin-6-yl)methyl)-N-methyl-4-oxohept-5-enamide] | 0.1 to 1 | 0.01 to 0.1 | 
CC(C)=CC(=O)CCC(=O)NCC(=O)N1CCN(Cc2cc3nc(-c4cccc5[nH]ncc45)nc(N4CCOCC4)c3s2)CC1 [II-a-41, N-(2-(4-((2-(1H-indazol-4-yl)-4-morpholinothieno[3,2-d]pyrimidin-6-yl)methyl)piperazin-1-yl)-2-oxoethyl)-6-methyl-4-oxohept-5-enamide] | > 1 | > 1 | 
C=CC(=O)N[C@H]1CC[C@H](C(=O)N(C)Cc2cc3nc(-c4cccc(O)c4)nc(N4CCOCC4)c3s2)CC1 [II-a-42] | > 1 | > 1 | 

Further lines, results first:

IC50 [1] [µM] | IC50 [2] [µM] | EC50 [3] [µM] | SMILES
> 1 | > 1 |  | C=CC(=O)N(C)CC(=O)N1CCN(Cc2cc3nc(-c4cccc5[nH]ncc45)nc(N4CCOCC4)c3s2)CC1 [II-a-44, N-(2-(4-((2-(1H-indazol-4-yl)-4-morpholinothieno[3,2-d]pyrimidin-6-yl)methyl)piperazin-1-yl)-2-oxoethyl)-N-methylacrylamide]
> 1 | 0.1 to 1 |  | CC(C)(C)C#CC(=O)CC[C@H](NC(=O)OC(C)(C)C)C(=O)N1CCN(Cc2cc3nc(-c4cccc5[nH]ncc45)nc(N4CCOCC4)c3s2)CC1 [II-a-51, (S)-tert-butyl 1-(4-((2-(1H-indazol-4-yl)-4-morpholinothieno[3,2-d]pyrimidin-6-yl)methyl)piperazin-1-yl)-8,8-dimethyl-1,5-dioxonon-6-yn-2-ylcarbamate]
> 1 | 0.1 to 1 |  | CC(C)(C)/C=C\C(=O)CC[C@H](NC(=O)OC(C)(C)C)C(=O)N1CCN(Cc2cc3nc(-c4cccc5[nH]ncc45)nc(N4CCOCC4)c3s2)CC1 [II-a-52, (S)-tert-butyl 1-(4-((2-(1H-indazol-4-yl)-4-morpholinothieno[3,2-d]pyrimidin-6-yl)methyl)piperazin-1-yl)-8,8-dimethyl-1,5-dioxonon-6-en-2-ylcarbamate]
> 1 | 0.1 to 1 |  | CN(C)C/C=C/C(=O)NCC(=O)N1CCN(Cc2cc3nc(-c4cccc5[nH]ncc45)nc(N4CCOCC4)c3s2)CC1 [II-a-56, (E)-N-(2-(4-((2-(1H-indazol-4-yl)-4-morpholinothieno[3,2-d]pyrimidin-6-yl)methyl)piperazin-1-yl)-2-oxoethyl)-4-(dimethylamino)but-2-enamide]
> 1 | 0.1 to 1 |  | C=CC(=O)N1CCN(C(=O)c2ccc(-c3cc4nc(-c5cccc6[nH]ncc56)nc(N5CCOCC5)c4s3)cc2)CC1 [II-a-57, 1-(4-(4-(2-(1H-indazol-4-yl)-4-morpholinothieno[3,2-d]pyrimidin-6-yl)benzoyl)piperazin-1-yl)prop-2-en-1-one]
> 1 | 0.01 to 0.1 |  | C=CC(=O)N1CCN(c2ccc(-c3cc4nc(-c5cccc(O)c5)nc(N5CCOCC5)c4s3)cc2)CC1 [II-a-58, 1-(4-(4-(2-(3-hydroxyphenyl)-4-morpholinothieno[3,2-d]pyrimidin-6-yl)phenyl)piperazin-1-yl)prop-2-en-1-one]
> 1 | > 1 |  | C=CC(=O)NCCN1CCN(Cc2cc3nc(-c4cccc5[nH]ncc45)nc(N4CCOCC4)c3s2)CC1 [II-a-59]
> 1 | 0.1 to 1 |  | CCCC(=O)CCC(=O)NCC(=O)N1CCN(Cc2cc3nc(-c4cccc5[nH]ncc45)nc(N4CCOCC4)c3s2)CC1 [II^R-a-16]
> 1 | 0.1 to 1 |  | C/C=C/C(=O)CCC(=O)N1CCN(c2ccnc3ccc(/C=C4\SC(=O)NC4=O)cc23)CC1 [V-2, (Z)-5-((4-(4-((E)-4-oxohept-5-enoyl)piperazin-1-yl)quinolin-6-yl)methylene)thiazolidine-2,4-dione]
0.1 to 1 | > 1 |  | C=CC(=O)n1cc(-c2ccc3c(c2)N(c2nc4c(s2)C(=O)NC(C)(C)C4)CCO3)cn1 [VI-1, 2-(6-(1-acryloyl-1H-pyrazol-4-yl)-2H-benzo[b][1,4]oxazin-4(3H)-yl)-6,6-dimethyl-6,7-dihydrothiazolo[5,4-c]pyridin-4(5H)-one]
> 1 | > 1 |  | O=C(/C=C/CNC(=O)CCCC(=O)NCCCOCCOCCOCCCNC(=O)CCCC[C@@H]1SC[C@@H]2NC(=O)N[C@@H]21)CCC(=O)N1CCN(Cc2cc3nc(-c4cccc5[nH]ncc45)nc(N4CCOCC4)c3s2)CC1 [XIV-a-2, N1-((E)-7-(4-((2-(1H-indazol-4-yl)-4-morpholinothieno[3,2-d]pyrimidin-6-yl)methyl)piperazin-1-yl)-4,7-dioxohept-2-enyl)-N5-(15-oxo-19-((3aS,4S,6aR)-2-oxohexahydro-1H-thieno[3,4-d]imidazol-4-yl)-4,7,10-trioxa-14-azanonadecyl)glutaramide]
